Measured values taken from patent US7803930B2, “Antisense modulation of apolipoprotein B-expression” (Isis Pharmaceuticals, Inc., priority 2002, dated 2010).
In the oligonucleotide strings, read from the 5' end, every base follows the letter of its sugar. An asterisk marks phosphorothioate; unmarked linkages are phosphodiester. Other units and linkages are bracketed, terminal groups are in braces. A string of capitals states the bases alone. e = 2'-O-(2-methoxyethyl) (MOE); [5mC] = 5-methylcytosine; d = 2'-deoxy (DNA)

What was measured:
[1] = tested on: rabbit apolipoprotein B mRNA; test: Inhibition of rabbit apolipoprotein B mRNA levels in primary rabbit hepatocytes, real-time PCR; type: cell-based; design: % INHIB of rabbit apolipoprotein B mRNA levels: concentration or dose not given beside the values
From the text: Primary rabbit hepatocytes were purchased from Invitro Technologies (Gaithersburg, Md.) and maintained in Dulbecco's modified Eagle's medium (Gibco). When purchased, the cells had been seeded into 96-well plates for use in RT-PCR analysis and were confluent.
In accordance with the present invention, a series of oligonucleotides was designed to target different regions of rabbit apolipoprotein B, using published sequences (GenBank accession number X07480.1, incorporated herein as SEQ ID NO: 808, GenBank accession number M17780.1, incorporated herein as SEQ ID NO: 809, and a sequence was derived using previously described primers (Tanaka, Journ. Biol. Chem., 1993,268, 12713-12718) representing an mRNA of the rabbit apolipoprotein B, incorporated herein as SEQ ID NO: 810). “Target site” indicates the first (5′-most) nucleotide number on the particular target sequence to which the oligonucleotide binds. All compounds in Table 21 are chimeric oligonucleotides (“gapmers”) 20 nucleotides in length, composed of a central “gap” region consisting of ten 2′-deoxynucleotides, which is flanked on both sides (5′ and 3′ directions) by five-nucleotide “wings”. The wings are composed of 2′-methoxyethyl (2′-MOE)nucleotides. The internucleoside (backbone) linkages are phosphorothioate (P═S) throughout the oligonucleotide. All cytidine residues are 5-methylcytidines. The compounds were analyzed for their effect on rabbit apolipoprotein B mRNA levels in primary rabbit hepatocytes by quantitative real-time PCR as described in other examples herein. Primary rabbit hepatocytes were treated with 150 nM of the compounds in Table 21. For rabbit apolipoprotein B the PCR primers were: • forward primer: AAGCACCCCCAATGTCACC (SEQ ID NO: 811) • reverse primer: […] (SEQ ID NO: 812) and the PCR probe was: FAM-[…]-TAMRA (SEQ ID NO: 813) where FAM (PE-Applied Biosystems, Foster City, Calif.) is the fluorescent reporter dye) and TAMRA (PE-Applied Biosystems, Foster City, Calif.) is the quencher dye. Data are averages from two experiments. If present, “N.D.” indicates “no data”.
In accordance with the present invention, a subset of the antisense oligonuclotides in Example 42 was further investigated in dose-response studies. Treatment doses were 10, 50, 150 and 300 nM. ISIS 233160 (SEQ ID NO: 824), ISIS 233166 (SEQ ID NO: 830), ISIS 233172 (SEQ ID NO: 835), ISIS 233175 (SEQ ID NO: 838), and ISIS 233183 (SEQ ID NO: 846) were analyzed for their effect on rabbit apolipoprotein B mRNA levels in primary rabbit hepatocytes by quantitative real-time PCR as described in other examples herein.

[2] = tested on: human apolipoprotein B mRNA; test: Inhibition of human apolipoprotein B mRNA levels in HepG2 cells, quantitative real-time PCR; type: cell-based; conditions: HepG2 cells; for % Change in apolipoprotein B mRNA expression: 24 hour (Table 41)
Method in brief: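 Apolipoprotein B transcript was quantified by one-step TaqMan RT-PCR, normalized to GAPDH or RiboGreen RNA, and expressed as percent inhibition against an untreated-sample standard curve. HepG2 cells were harvested 16-24 h after oligonucleotide exposure, which was delivered with 3.75 μg/mL Lipofectin over 4-7 h at 80% confluency.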

Substance	% INHIB of rabbit apolipoprotein B mRNA levels [1]	further results
233149 (antisense eT*eG*e[5mC]*eT*eT*dG*dG*dA*dG*dA*dA*dG*dG*dT*dA*eA*eG*eA*eT*e[5mC]) [compound 233149]	0%	
233150 (antisense eG*e[5mC]*eG*eT*eT*dG*dT*d[5mC]*dT*d[5mC]*d[5mC]*dG*dA*dT*dG*eT*eT*e[5mC]*eT*eG) [compound 233150]	20%	
233151 (antisense eT*eA*eA*eT*e[5mC]*dA*dT*dT*dA*dA*d[5mC]*dT*dT*dG*d[5mC]*eT*eG*eT*eG*eG) [compound 233151]	20%	
233152 (antisense eT*e[5mC]*eA*eG*e[5mC]*dA*d[5mC]*dG*dT*dA*dG*d[5mC]*dA*dA*dT*eG*e[5mC]*eA*eT*eT) [compound 233152]	0%	
233153 (antisense eG*e[5mC]*e[5mC]*eT*eG*dA*dT*dA*d[5mC]*dT*d[5mC]*dA*dG*d[5mC]*dA*e[5mC]*eG*eT*eA*eG) [compound 233153]	0%	
233154 (antisense e[5mC]*eA*eA*eT*eT*dG*dA*dA*dT*dG*dT*dA*d[5mC]*dT*d[5mC]*eA*eG*eA*eT*eA) [compound 233154]	18%	
233155 (antisense eA*e[5mC]*e[5mC]*eT*e[5mC]*dA*dG*dT*dG*dA*d[5mC]*dT*dT*dG*dT*eA*eA*eT*e[5mC]*eA) [compound 233155]	47%	
233156 (antisense e[5mC]*eA*e[5mC]*eT*eG*dG*dA*dA*dA*d[5mC]*dT*dT*dG*dT*d[5mC]*eT*e[5mC]*eT*e[5mC]*e[5mC]) [compound 233156]	23%	
233157 (antisense eA*eG*eT*eA*eG*dT*dT*dA*dG*dT*dT*dT*d[5mC]*dT*d[5mC]*e[5mC]*eT*eT*eG*eG) [compound 233157]	0%	
233159 (antisense eT*e[5mC]*eA*eG*eT*dG*d[5mC]*d[5mC]*d[5mC]*dA*dA*dG*dA*dT*dG*eT*e[5mC]*eA*eG*e[5mC]) [compound 233159]	0%	
332782 (antisense TCAGTCTGCTTCGC; all phosphorothioate, sugars by position and methylation of C not given here; 2'-MOE wings flank a DNA gap) [compound 332782]		% Change in apolipoprotein B mRNA expression ([2]; 10 nM): −16%; % Change in apolipoprotein B mRNA expression ([2]; 50 nM): −16%; % Change in apolipoprotein B mRNA expression ([2]; 150 nM): −69%
332784 (antisense GCCTCAGTCT; linkages s4 o1 s4 (s phosphorothioate, o phosphodiester), sugars by position and methylation of C not given here; 2'-MOE wings flank a DNA gap) [compound 332784]		% Change in apolipoprotein B mRNA expression ([2]; 10 nM): +12%; % Change in apolipoprotein B mRNA expression ([2]; 50 nM): −1%; % Change in apolipoprotein B mRNA expression ([2]; 150 nM): +7%
332785 (antisense GCTTCGCACC; linkages s4 o1 s4 (s phosphorothioate, o phosphodiester), sugars by position and methylation of C not given here; 2'-MOE wings flank a DNA gap) [compound 332785]		% Change in apolipoprotein B mRNA expression ([2]; 10 nM): +5%; % Change in apolipoprotein B mRNA expression ([2]; 50 nM): −2%; % Change in apolipoprotein B mRNA expression ([2]; 150 nM): −4%
ISIS 332770: ISIS 301012 derivative with a single thymidine to cytosine substitution in the center of the oligonucleotide (GCCTCAGTCTTCTTCGCACC; sugars from the 5' end e5 d10 e5, all phosphorothioate, methylation of C not given here)		potency relative to ISIS 301012 (fold less potent) ([2]; 50 or 150 nM, 24 hours): 3 fold
